According to PubChem BioAssay (NCI):
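Five concentrations, 48 hours, 96-well plates. GI50 = concentration required for 50% inhibition of growth. At the TGI there is no net growth.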

Legend:
Assay in all cases: growth of human tumour cells (NCI), 48 h
786-0 renal = tested on: 786-0 renal
A498 renal = tested on: A498 renal
A549 NSCLC = tested on: A549 NSCLC
ACHN renal = tested on: ACHN renal
BT-549 breast = tested on: BT-549 breast
CAKI-1 renal = tested on: CAKI-1 renal
CCRF-CEM leukemia = tested on: CCRF-CEM leukemia
COLO 205 colon = tested on: COLO 205 colon
DU-145 prostate = tested on: DU-145 prostate
EKVX NSCLC = tested on: EKVX NSCLC
HCC-2998 colon = tested on: HCC-2998 colon
HCT-116 colon = tested on: HCT-116 colon
HCT-15 colon = tested on: HCT-15 colon
HL-60(TB) leukemia = tested on: HL-60(TB) leukemia
HOP-62 NSCLC = tested on: HOP-62 NSCLC
HOP-92 NSCLC = tested on: HOP-92 NSCLC
HS 578T breast = tested on: HS 578T breast
HT29 colon = tested on: HT29 colon
IGROV1 ovarian = tested on: IGROV1 ovarian
K-562 leukemia = tested on: K-562 leukemia
KM12 colon = tested on: KM12 colon
LOX IMVI melanoma = tested on: LOX IMVI melanoma
M14 melanoma = tested on: M14 melanoma
MALME-3M melanoma = tested on: MALME-3M melanoma
MCF7 breast = tested on: MCF7 breast
MDA-MB-231 breast = tested on: MDA-MB-231 breast
MDA-MB-435 = tested on: MDA-MB-435
MOLT-4 leukemia = tested on: MOLT-4 leukemia
NCI-H226 lung = tested on: NCI-H226 lung
NCI-H23 lung = tested on: NCI-H23 lung
NCI-H460 lung = tested on: NCI-H460 lung
NCI-H522 lung = tested on: NCI-H522 lung
NCI/ADR-RES ovarian = tested on: NCI/ADR-RES ovarian
OVCAR-3 ovarian = tested on: OVCAR-3 ovarian
OVCAR-4 ovarian = tested on: OVCAR-4 ovarian
OVCAR-5 ovarian = tested on: OVCAR-5 ovarian
OVCAR-8 ovarian = tested on: OVCAR-8 ovarian
PC-3 prostate = tested on: PC-3 prostate
RPMI-8226 leukemia = tested on: RPMI-8226 leukemia
SF-268 CNS = tested on: SF-268 CNS
SF-295 CNS = tested on: SF-295 CNS
SF-539 CNS = tested on: SF-539 CNS
SK-MEL-2 melanoma = tested on: SK-MEL-2 melanoma
SK-MEL-28 melanoma = tested on: SK-MEL-28 melanoma
SK-MEL-5 melanoma = tested on: SK-MEL-5 melanoma
SK-OV-3 ovarian = tested on: SK-OV-3 ovarian
SN12C renal = tested on: SN12C renal
SNB-19 CNS = tested on: SNB-19 CNS
SNB-75 CNS = tested on: SNB-75 CNS
SR leukemia = tested on: SR leukemia
SW-620 colon = tested on: SW-620 colon
T-47D breast = tested on: T-47D breast
TK-10 renal = tested on: TK-10 renal
U251 CNS = tested on: U251 CNS
UACC-257 melanoma = tested on: UACC-257 melanoma
UACC-62 melanoma = tested on: UACC-62 melanoma
UO-31 renal = tested on: UO-31 renal

Structure (SMILES): N#CN1CC[C@H](C(=O)Nc2ncc(-c3ccccc3)s2)C1
- GI50 (786-0 renal): 0.404 µM
- TGI (786-0 renal): 2.48 µM
- GI50 (A498 renal): 1.62 µM
- TGI (A498 renal): 3.45 µM
- GI50 (A549 NSCLC): 1.9 µM
- TGI (A549 NSCLC): 8.61 µM
- GI50 (ACHN renal): 0.562 µM
- TGI (ACHN renal): 2.49 µM
- GI50 (BT-549 breast): 0.156 µM
- TGI (BT-549 breast): 0.821 µM
- GI50 (CAKI-1 renal): 1.65 µM
- TGI (CAKI-1 renal): 4.26 µM
- GI50 (CCRF-CEM leukemia): 0.271 µM
- TGI (CCRF-CEM leukemia): > 100 µM
- GI50 (COLO 205 colon): 0.195 µM
- TGI (COLO 205 colon): 0.449 µM
- GI50 (DU-145 prostate): 0.814 µM
- TGI (DU-145 prostate): 2.04 µM
- GI50 (EKVX NSCLC): 1.43 µM
- TGI (EKVX NSCLC): 3.28 µM
- GI50 (HCC-2998 colon): 1.09 µM
- TGI (HCC-2998 colon): 2.58 µM
- GI50 (HCT-116 colon): 0.323 µM
- TGI (HCT-116 colon): 2.18 µM
- GI50 (HCT-15 colon): 0.312 µM
- TGI (HCT-15 colon): 3.65 µM
- GI50 (HL-60(TB) leukemia): 0.269 µM
- TGI (HL-60(TB) leukemia): 0.652 µM
- GI50 (HOP-62 NSCLC): 1.37 µM
- TGI (HOP-62 NSCLC): 4.21 µM
- GI50 (HOP-92 NSCLC): 0.662 µM
- TGI (HOP-92 NSCLC): 4.25 µM
- GI50 (HS 578T breast): 0.811 µM
- TGI (HS 578T breast): 5.05 µM
- GI50 (HT29 colon): 0.313 µM
- TGI (HT29 colon): 1.82 µM
- GI50 (IGROV1 ovarian): 0.449 µM
- TGI (IGROV1 ovarian): 5.59 µM
- GI50 (K-562 leukemia): 0.455 µM
- TGI (K-562 leukemia): 11 µM
- GI50 (KM12 colon): 0.592 µM
- TGI (KM12 colon): 2.78 µM
- GI50 (LOX IMVI melanoma): 0.267 µM
- TGI (LOX IMVI melanoma): 1.65 µM
- GI50 (M14 melanoma): 0.495 µM
- TGI (M14 melanoma): 2.22 µM
- GI50 (MALME-3M melanoma): 0.232 µM
- TGI (MALME-3M melanoma): 1.42 µM
- GI50 (MCF7 breast): 0.19 µM
- TGI (MCF7 breast): 1.32 µM
- GI50 (MDA-MB-231 breast): 0.41 µM
- TGI (MDA-MB-231 breast): 4.65 µM
- GI50 (MDA-MB-435): 0.273 µM
- TGI (MDA-MB-435): 1.73 µM
- GI50 (MOLT-4 leukemia): 0.309 µM
- TGI (MOLT-4 leukemia): 2.04 µM
- GI50 (NCI-H226 lung): 0.693 µM
- TGI (NCI-H226 lung): 4.19 µM
- GI50 (NCI-H23 lung): 0.705 µM
- TGI (NCI-H23 lung): 6.46 µM
- GI50 (NCI-H460 lung): 0.423 µM
- TGI (NCI-H460 lung): 2.47 µM
- GI50 (NCI-H522 lung): 0.205 µM
- TGI (NCI-H522 lung): 0.547 µM
- GI50 (NCI/ADR-RES ovarian): 0.724 µM
- TGI (NCI/ADR-RES ovarian): 8.01 µM
- GI50 (OVCAR-3 ovarian): 0.346 µM
- TGI (OVCAR-3 ovarian): 1.44 µM
- GI50 (OVCAR-4 ovarian): 0.673 µM
- TGI (OVCAR-4 ovarian): 5.59 µM
- GI50 (OVCAR-5 ovarian): 1.39 µM
- TGI (OVCAR-5 ovarian): > 100 µM
- GI50 (OVCAR-8 ovarian): 0.45 µM
- TGI (OVCAR-8 ovarian): 6.46 µM
- GI50 (PC-3 prostate): 0.706 µM
- TGI (PC-3 prostate): 2.97 µM
- GI50 (RPMI-8226 leukemia): 0.27 µM
- TGI (RPMI-8226 leukemia): 0.854 µM
- GI50 (SF-268 CNS): 0.789 µM
- TGI (SF-268 CNS): 4.23 µM
- GI50 (SF-295 CNS): 1.22 µM
- TGI (SF-295 CNS): 6.44 µM
- GI50 (SF-539 CNS): 0.294 µM
- TGI (SF-539 CNS): 1.38 µM
- GI50 (SK-MEL-2 melanoma): 0.274 µM
- TGI (SK-MEL-2 melanoma): 0.726 µM
- GI50 (SK-MEL-28 melanoma): 1.09 µM
- TGI (SK-MEL-28 melanoma): 3.01 µM
- GI50 (SK-MEL-5 melanoma): 0.829 µM
- TGI (SK-MEL-5 melanoma): 3.58 µM
- GI50 (SK-OV-3 ovarian): 2.2 µM
- TGI (SK-OV-3 ovarian): 13.8 µM
- GI50 (SN12C renal): 0.471 µM
- TGI (SN12C renal): 7.24 µM
- GI50 (SNB-19 CNS): 1.11 µM
- TGI (SNB-19 CNS): 11.3 µM
- GI50 (SNB-75 CNS): 0.374 µM
- TGI (SNB-75 CNS): 2.69 µM
- GI50 (SR leukemia): 0.222 µM
- TGI (SR leukemia): 1.29 µM
- GI50 (SW-620 colon): 0.313 µM
- TGI (SW-620 colon): 14.4 µM
- GI50 (T-47D breast): 0.483 µM
- TGI (T-47D breast): 3.35 µM
- GI50 (TK-10 renal): 1.19 µM
- TGI (TK-10 renal): 2.99 µM
- GI50 (U251 CNS): 0.545 µM
- TGI (U251 CNS): 5.15 µM
- GI50 (UACC-257 melanoma): 1.52 µM
- TGI (UACC-257 melanoma): 3.73 µM
- GI50 (UACC-62 melanoma): 0.371 µM
- TGI (UACC-62 melanoma): 2.18 µM
- GI50 (UO-31 renal): 0.549 µM
- TGI (UO-31 renal): 5.36 µM
